Consider 13 molecules from publication PMC3760131 (Acta Crystallographica Section D: Biological Crystallography, 2013).

Read-outs that look alike come from different tables or passages of the source. Where a SMILES comes first, the peptide text is derived from it. Where only a bound is given, the exact number is not on record here.

The target in one data set is T1, XIAP BIR2 (Homo sapiens, UniProt P98170).
T1 construct: 6×histidine-tagged BIR2 (amino acids 124–240) or BIR3 (amino acids 241–356) domain of the XIAP protein
T1 sequence (P98170 124-240): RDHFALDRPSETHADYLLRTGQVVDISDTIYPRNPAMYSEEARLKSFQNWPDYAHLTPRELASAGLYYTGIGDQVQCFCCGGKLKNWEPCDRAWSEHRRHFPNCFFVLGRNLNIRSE
In words: BIR2 TR-FRET assay (displacement of AVPI-derived peptide). It is filed as binding. The procedure:
(§1) Time-resolved fluorescence resonance energy transfer (TR-FRET) signals were measured 1 h later at room temperature. Compound potency was assessed at ten serially diluted concentrations. The percentage of inhibition at each concentration was determined to generate an IC50 value for each compound.

The target of a further data set is T2, XIAP BIR3 (Homo sapiens, UniProt P98170).
T2 construct: 6×histidine-tagged BIR2 (amino acids 124–240) or BIR3 (amino acids 241–356) domain of the XIAP protein
T2 sequence (P98170 241-356): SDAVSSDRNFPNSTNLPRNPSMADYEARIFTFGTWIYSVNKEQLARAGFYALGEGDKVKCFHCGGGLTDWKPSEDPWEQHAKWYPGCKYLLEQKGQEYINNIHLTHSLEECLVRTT
In words: BIR3 TR-FRET assay (displacement of AVPI-derived peptide). In kind it is binding. On the procedure:
as §1

In data set [1] the target is 6×histidine-tagged BIR2 (amino acids 124–240) domain of the XIAP protein (UniProt P98170). In words: AlphaScreen or HTRF; TR-FRET competition: 10 nM 6xHis BIR2 or BIR3 domain with 20 nM …-(epsilon-biotin)-OH; europium streptavidin (1.5 nM) and allophycocyanin anti-histidine antibody (15 nM); 50 mM Tris-HCl pH 7.5, 100 mM NaCl, 1 mM DTT, 0.1 mg/ml BSA; 45 min at 310 K, read 1 h later at room temperature; ten concentrations; Ki from IC50 by Cheng-Prusoff.
Chain of 6×histidine-tagged BIR2 (amino acids 124–240) domain of the XIAP protein (P98170 124-240): as the sequence (P98170 124-240) above

Data set [2] deals with the molecule itself. In words: crystal structure; apo BIR2 crystals, sitting drop, 1.7-1.9 M ammonium sulfate, 125 mM bis-tris propane pH 7.0, room temperature; two molecules (A and B).
The mark [3] stands for this setting: FRET-based displacement of AVPI-derived peptide from 6xHis BIR2 (124-240), Ki from IC50 by Cheng-Prusoff, read-out: BIR2 K i.
The mark [4] stands for this setting: FRET-based displacement of AVPI-derived peptide from 6xHis BIR3 (241-356), Ki from IC50 by Cheng-Prusoff, read-out: BIR3 K i.

For `CC[C@H](C)[C@H](NC(=O)[C@H](C)N)C(=O)N[C@@H](C)C(=O)N[C@H](C(=O)O)C(C)C` [AIAV] (H-AIAV-OH), the values for the Ki on XIAP BIR2 and at XIAP BIR3 were 1.87 µM and 28.2 µM, respectively.

For `CC[C@H](C)[C@H](NC(=O)[C@@H]1CCCN1C(=O)[C@@H](NC(=O)[C@H](C)N)[C@@H](C)CC)C(=O)O` [AIPI] (H-AIPI-OH), the values for the Ki on XIAP BIR2 (setting [3]) and on XIAP BIR3 (setting [4]) were 3.11 µM and 0.08 µM, respectively.

`CC[C@H](C)[C@H](NC(=O)[C@H](CCCNC(=N)N)NC(=O)[C@H](CCSC)NC(=O)[C@H](C)N)C(=O)O` [AMRI] (H-AMRI-OH): the Ki at XIAP BIR2 (setting [3]) was found to be 3.52 µM; at XIAP BIR3 (setting [4]) it was 5.2 µM. Take `CSCC[C@H](NC(=O)[C@H](C)N)C(=O)N[C@@H](CCCNC(=N)N)C(=O)N[C@H](C(=O)O)C(C)C` [AMRV] (H-AMRV-OH): the Ki on XIAP BIR2 (setting [3]) is 2.41 µM; on XIAP BIR3 (setting [4]) it was 32.9 µM. Take `C[C@H](N)C(=O)N[C@@H](CCCNC(=N)N)C(=O)N1CCC[C@H]1C(=O)N[C@@H](CCCNC(=N)N)C(=O)O` [ARPR] (H-ARPR-OH): at XIAP BIR2 (setting [3]), the Ki was above 53 µM.

As for `C[C@H](N)C(=O)N[C@H](C(=O)N[C@@H](C)C(=O)N[C@@H](C)C(=O)O)[C@@H](C)O` [ATAA] (H-ATAA-OH), the Ki on XIAP BIR2 (setting [3]) was 1.7 µM; at XIAP BIR3 (setting [4]), above 47 µM. Moreover, on XIAP BIR3 (TR-FRET assay), the “activity against BIR3 (in words)” value is “inactive”. `CC(C)[C@H](NC(=O)[C@H](C)NC(=O)[C@@H](NC(=O)[C@H](C)N)[C@@H](C)O)C(=O)O` [ATAV] (H-ATAV-OH): the Ki at XIAP BIR2 (setting [3]) stood at 2.17 µM; on XIAP BIR3 (setting [4]), 32.3 µM. In the case of `CC(C)[C@H](NC(=O)[C@H](C)NC(=O)[C@@H](NC(=O)[C@H](C)N)C(C)C)C(=O)O` [AVAV] (H-AVAV-OH), the Ki at XIAP BIR2 (setting [3]) is 1.87 µM; at XIAP BIR3 (setting [4]), 26.1 µM.

On to `CC(C)[C@H](NC(=O)[C@@H](NC(=O)[C@@H](NC(=O)[C@H](C)N)C(C)C)C(C)C)C(=O)O` [AVVV] (H-AVVV-OH), for which the Ki at XIAP BIR2 (setting [3]) came out at 2.54 µM. For `CC[C@H](C)[C@H](NC(=O)[C@@H]1CCCN1C(=O)[C@H](CCSC)NC(=O)[C@@H](N)CO)C(=O)O` [SMPI] (H-SMPI-OH), the Ki on XIAP BIR2 (setting [3]) was found to be 34 µM; at XIAP BIR3 (setting [4]), 12.5 µM.

As for `CSCC[C@H](NC(=O)[C@@H](N)CO)C(=O)N[C@@H](CCCNC(=N)N)C(=O)N[C@H](C(=O)O)C(C)C` [SMRV] (H-SMRV-OH), the Ki was 12.3 µM at XIAP BIR2 (setting [3]) and above 47 µM at XIAP BIR3 (setting [4]). In data set [1], SMRV registered a Ki of 12.2 µM.

B1: XIAP BIR2(152–236;C202A,C213G) (domain or fragment, human)
chain: GTIYPRNPAMYSEEARLKSFQNWPDYAHLTPRELASAGLYYTGIGDQVQCFACGGKLKNWEPGDRAWSEHRRHFPNCFFVLGRNLN
notes: printed as hBIR2; Two molecules (A and B) in the crystal; also called hBIR2(152–236;C202A,C213G); BIR2 domain of XIAP; source: E. coli Rosetta2(DE3)pLysS, purified (Ni-NTA, TEV cleavage, Superdex 75); not shown: His6, N-terminal, cleaved
As to B1, in data set [2], the binding result is reported as “binds”.
